According to US7572831B2, “Composition containing chalcone” (Angiolab, Inc., priority 2002, dated 2009):

Key:
TPA-induced ear edema [1] = experiment: TPA-induced ear edema model; format: in vivo, ICR mouse; conditions: FIG. 7
TPA-induced ear edema [2] = experiment: TPA-induced ear edema model; format: in vivo, ICR mouse
Protocol: To observe the anti-inflammatory effects of chalcone or its derivatives edema was induced in the ear by topical application of 10 ul of TPA (Tetradecanoylphorbol acetate) in acetone (2.5 ug/ear) to both the inner and outer surface of one ear of each 6-week-old ICR mouse. 5% of Chalcone or its derivatives diluted with acetone were applied separately to each ear topically immediately after TPA. The reference drug, indomethacin (0.5 mg/ear), was administered as a positive control. Ear thickness was measured before and 4 hours after treatment with the irritant using a micrometer (Mitutoyo Co.). Ear thickness was expressed as the mean of the difference between thickness before and after challenge. Inhibition ratio percentage of edema was expressed as the reduction in thickness with respect to the control treated only with TPA. As shown in FIG. 6 and Table 2, chalcone or its derivatives suppressed the TPA-induced ear edema.

MMP-9 = biological target: T1, MMP-9 (Homo sapiens, UniProt P14780); experiment: MMP-9 spectrofluorometric enzyme activity assay; format: biochemical; conditions: 50 μM compound; read-out: MMP-9 activity inhibited
T1 construct: made in house; host or cells: Sf21 insect cells, baculovirus (pBlueBac4.5)
Protocol: (§1) MMP-1, MMP-2, MMP-9 and MMP-13 were cloned and prepared from insect cells (Sf21 insect cell) by using a Baculovirus system.
(§2) Each cDNA for corresponding MMPs was cloned to a pBlueBac4.5 transfer vector (Invitrogen, Cat no. V1995-20), and then transfected to Sf21 cells with a Bac-N-Blue Transfection Kit (Invitrogen, Cat no. K855-01). Sf21 cells were incubated with a TNM-FH (Sigma, St. Louis, Mo., U.S.A) media containing 10% fetal bovine serum at 27° C., then harvested and re-suspended at a concentration of 10^7 cell/Ml. The cell suspension was incubated with a virus containing the cloned gene for 1 hr at room temperature. Infected Sf21 cells were grown for 72 hrs and the medium was recovered, and the MMP was purified. MMP-2 (GENEBANK No. XM—048244) and MMP-9 (GENEBANK No. XM—009491) were recovered from a gelatin-sepharose affinity column (Sigma, G5384) by eluting with 5% DMSO-containing buffer. […]
(§3) As a control, 2 Ml of reaction buffer (50 mM Tricine, pH 7.5, 10 mM CaCl2, 200 mM NaCl) comprising DMSO, 10 nM of enzyme and 10 μM of substrate was prepared in a cuvette. Fluorescence intensity was measured for 5-10 min at room temperature with a spectrofluorometer.
(§4) 50 μM Chalcone or its derivatives were added to a reaction buffer containing a substrate and enzyme, and fluorescence intensity was measured in the same manner.

[3] = tested on: human umbilical vein endothelial cells (HUVECs); experiment: Tube formation of HUVEC on Matrigel; format: cell-based; conditions: 50 μM, 8-16 hrs
Description: The effect of chalcone or its derivatives on human endothelial cells was investigated to evaluate the biological effect of chalcones as MMP inhibitors. Since MMPs are responsible for the degradation of extracellular matrix, chalcone or its derivatives can inhibit the formation of tubular network of vessel, which represent migration and differentiation of endothelial cell. Blood vessel endothelial cells, human umbilical vein endothelial cells (HUVECs), were isolated from freshly obtained cords after cesarean section according to Grants' method (Grants D. S., et al., Cell, 58, pp933-943, 1989). They were identified by immunocytochemical staining with anti-Factor VIII antibody. HUVECs cultured on Matrigel (BD Bioscience, Bedford, Mass., USA) were treated with 50 μM of chalcone or its derivatives, and further incubated at 37° C. for 8-16 hrs. As a control, the procedure was repeated with the solvent of the above compounds.

MMP-1 = biological target: T2, MMP-1 (Homo sapiens, UniProt P03956); experiment: MMP-1 spectrofluorometric enzyme activity assay; format: biochemical; conditions: 50 μM compound; read-out: MMP-1 activity inhibited
T2 construct: made in house; host or cells: Sf21 insect cells, baculovirus (pBlueBac4.5)
T2 sequence (P03956 100-469): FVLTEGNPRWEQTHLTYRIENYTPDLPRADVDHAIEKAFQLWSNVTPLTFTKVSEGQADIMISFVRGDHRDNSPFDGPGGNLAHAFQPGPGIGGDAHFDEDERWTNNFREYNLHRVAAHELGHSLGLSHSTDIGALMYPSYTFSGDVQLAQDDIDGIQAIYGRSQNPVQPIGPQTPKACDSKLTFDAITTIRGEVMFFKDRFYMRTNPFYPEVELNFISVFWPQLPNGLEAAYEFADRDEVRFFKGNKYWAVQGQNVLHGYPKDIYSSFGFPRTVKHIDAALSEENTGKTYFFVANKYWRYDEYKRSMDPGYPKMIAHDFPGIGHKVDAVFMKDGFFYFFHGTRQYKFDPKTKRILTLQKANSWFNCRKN
Protocol: as §1, §2, §3, §4

[4] = tested on: experimentally induced comedones; experiment: Comedolysis by EIC (experimentally induced comedones) formation; format: in vivo, New Zealand white rabbits; conditions: topical once a day, 3 weeks
Description: Effects of chalcone on comedolysis were studied using subjects of ten mature New Zealand white rabbits, which were bred to approximately 2 kg of body weight for several weeks. In order to generate EIC, 50% oleic acid in polyethylene glycol was applied to both ears of rabbits for 2 weeks. The experimental agent was applied to the ventral surface near the auditory canal once a day with the tip of a cotton stick. 18 ears of rabbits were divided into three groups, and only one of ethanol-propylene glycol (1:1) (control), 1% chalcone in ethanol-propylene glycol (1:1), or 5% chalcone in ethanol-propylene glycol (1:1) was applied on each groups for 3 weeks. The remaining 2 ears were left untreated. Biopsy specimens were taken at 3 week by punch and specimens were fixed in 10% formalin solution and embedded in paraffin for light microscopic examination. Sections of 5 μm thickness were cut and hematoxylin and eosin stain were performed. Under light microscope, fairly large comedones were formed showing hyperplasia and hyperkeratosis of epithelium in specimen treated with vehicle only. The formation of comedones decreased in specimen treated with 1% or 5% of chalcone.

T1 sequence (P14780 107-707 limits assumed): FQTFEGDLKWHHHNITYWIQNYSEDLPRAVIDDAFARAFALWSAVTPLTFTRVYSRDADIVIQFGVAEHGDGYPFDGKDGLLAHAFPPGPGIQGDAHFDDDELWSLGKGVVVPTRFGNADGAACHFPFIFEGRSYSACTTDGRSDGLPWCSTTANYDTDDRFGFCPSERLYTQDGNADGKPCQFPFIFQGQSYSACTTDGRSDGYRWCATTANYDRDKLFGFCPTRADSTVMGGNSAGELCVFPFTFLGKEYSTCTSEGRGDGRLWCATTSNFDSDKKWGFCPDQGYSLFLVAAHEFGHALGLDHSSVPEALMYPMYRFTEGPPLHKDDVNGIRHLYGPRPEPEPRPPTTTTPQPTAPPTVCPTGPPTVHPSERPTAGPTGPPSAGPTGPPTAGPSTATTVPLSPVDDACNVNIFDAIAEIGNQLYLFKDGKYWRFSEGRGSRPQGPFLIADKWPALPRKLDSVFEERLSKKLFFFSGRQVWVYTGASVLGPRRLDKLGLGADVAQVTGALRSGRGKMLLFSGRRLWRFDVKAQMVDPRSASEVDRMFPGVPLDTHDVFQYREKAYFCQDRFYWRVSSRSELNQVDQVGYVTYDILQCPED

inhibition at 50 µM (MMP-9): ~76%
inhibition at 50 µM (MMP-1): ~75%
SMILES: O=C(/C=C/c1ccccc1)c1ccccc1 [Chalcone]
Dose dependence of anti-inflammatory activity (TPA-induced ear edema [1]): dose dependent
Inhibition ratio (%) of ear edema (TPA-induced ear edema [2]; topical 5% in acetone (indomethacin 0.5 mg/ear), 4 hours after TPA): 69.3%
Δ Ear thickness (um ± S.D) (TPA-induced ear edema [2]; topical 5% in acetone (indomethacin 0.5 mg/ear), 4 hours after TPA, TPA control 176 ± 35): 54 ± 22 um
Relative potency among chalcone or its derivatives on ear edema (TPA-induced ear edema [2]; topical 5%, TPA-induced ear edema): greatest potency
Tubular (microvascular) network formation of HUVEC [3]: microvascular network was disconnected
Formation of comedones ([4]; 1% chalcone in ethanol-propylene glycol (1:1)): decreased
Formation of comedones ([4]; 5% chalcone in ethanol-propylene glycol (1:1)): decreased
